Experimental data taken from ChEMBL document CHEMBL4507319 (2021).

Legend:
[1] = target: Protein kinase C theta type (Homo sapiens) (UniProt Q04759); conditions: Compound concentration 1000.0 nM
[2] = target: T1, Ephrin type-B receptor 4 (Homo sapiens) (UniProt P54760); assay: EphB4(h) Eurofins kinase panel; conditions: Compound concentration 1.0 uM
T1 sequence (whole entry): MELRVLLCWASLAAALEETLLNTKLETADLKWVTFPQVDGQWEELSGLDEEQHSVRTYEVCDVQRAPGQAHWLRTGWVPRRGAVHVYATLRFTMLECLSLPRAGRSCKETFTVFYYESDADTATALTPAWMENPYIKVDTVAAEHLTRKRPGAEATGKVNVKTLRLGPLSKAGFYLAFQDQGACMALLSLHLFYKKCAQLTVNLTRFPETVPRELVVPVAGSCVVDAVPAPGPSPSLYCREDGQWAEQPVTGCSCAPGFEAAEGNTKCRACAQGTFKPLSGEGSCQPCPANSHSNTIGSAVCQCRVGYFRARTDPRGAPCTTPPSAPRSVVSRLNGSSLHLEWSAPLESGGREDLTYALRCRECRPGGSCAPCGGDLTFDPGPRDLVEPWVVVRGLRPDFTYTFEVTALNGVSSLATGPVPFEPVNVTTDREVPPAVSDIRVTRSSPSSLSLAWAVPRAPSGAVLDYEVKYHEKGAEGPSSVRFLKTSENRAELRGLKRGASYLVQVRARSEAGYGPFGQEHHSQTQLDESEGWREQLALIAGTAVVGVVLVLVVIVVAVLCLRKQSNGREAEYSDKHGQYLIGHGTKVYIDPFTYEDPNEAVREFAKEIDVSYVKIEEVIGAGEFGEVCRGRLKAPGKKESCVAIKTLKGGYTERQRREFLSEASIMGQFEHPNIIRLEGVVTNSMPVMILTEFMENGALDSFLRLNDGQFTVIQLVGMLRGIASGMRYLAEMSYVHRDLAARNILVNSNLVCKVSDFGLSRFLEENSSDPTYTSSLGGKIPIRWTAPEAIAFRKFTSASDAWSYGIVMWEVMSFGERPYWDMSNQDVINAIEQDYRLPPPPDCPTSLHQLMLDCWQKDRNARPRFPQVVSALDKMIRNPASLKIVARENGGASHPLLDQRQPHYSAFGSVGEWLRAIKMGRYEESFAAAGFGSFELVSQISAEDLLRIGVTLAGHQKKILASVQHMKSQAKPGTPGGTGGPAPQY

[3] = target: Homeodomain-interacting protein kinase 2 (Homo sapiens) (UniProt Q9H2X6); assay: HIPK2(h) Eurofins kinase panel; conditions: Compound concentration 1.0 uM
[4] = target: [Pyruvate dehydrogenase (acetyl-transferring)] kinase isozyme 4, mitochondrial (Homo sapiens) (UniProt Q16654); assay: PDHK4(h) Eurofins kinase panel; conditions: Compound concentration 1.0 uM
[5] = target: T2, Testis-specific serine/threonine-protein kinase 1 (Homo sapiens) (UniProt Q9BXA7); assay: TSSK1(h) Eurofins kinase panel; conditions: Compound concentration 1.0 uM
T2 sequence (whole entry): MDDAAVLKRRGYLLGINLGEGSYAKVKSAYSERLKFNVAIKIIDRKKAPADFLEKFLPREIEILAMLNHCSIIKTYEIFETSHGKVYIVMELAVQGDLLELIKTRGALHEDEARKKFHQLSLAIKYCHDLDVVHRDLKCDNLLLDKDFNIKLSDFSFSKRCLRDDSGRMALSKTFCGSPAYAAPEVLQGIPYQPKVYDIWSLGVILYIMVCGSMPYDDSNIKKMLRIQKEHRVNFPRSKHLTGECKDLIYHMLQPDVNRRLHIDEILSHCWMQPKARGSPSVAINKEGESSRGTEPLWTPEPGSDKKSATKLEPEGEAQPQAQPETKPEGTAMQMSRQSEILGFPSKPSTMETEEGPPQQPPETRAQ

[6] = target: Ribosomal protein S6 kinase alpha-4 (Homo sapiens) (UniProt O75676); assay: MSK2(h) Eurofins kinase panel; conditions: Compound concentration 1.0 uM
[7] = target: T3, Tyrosine-protein kinase JAK3 (Homo sapiens) (UniProt P52333); assay: JAK3(h) Eurofins kinase panel; conditions: Compound concentration 1.0 uM
T3 sequence (whole entry): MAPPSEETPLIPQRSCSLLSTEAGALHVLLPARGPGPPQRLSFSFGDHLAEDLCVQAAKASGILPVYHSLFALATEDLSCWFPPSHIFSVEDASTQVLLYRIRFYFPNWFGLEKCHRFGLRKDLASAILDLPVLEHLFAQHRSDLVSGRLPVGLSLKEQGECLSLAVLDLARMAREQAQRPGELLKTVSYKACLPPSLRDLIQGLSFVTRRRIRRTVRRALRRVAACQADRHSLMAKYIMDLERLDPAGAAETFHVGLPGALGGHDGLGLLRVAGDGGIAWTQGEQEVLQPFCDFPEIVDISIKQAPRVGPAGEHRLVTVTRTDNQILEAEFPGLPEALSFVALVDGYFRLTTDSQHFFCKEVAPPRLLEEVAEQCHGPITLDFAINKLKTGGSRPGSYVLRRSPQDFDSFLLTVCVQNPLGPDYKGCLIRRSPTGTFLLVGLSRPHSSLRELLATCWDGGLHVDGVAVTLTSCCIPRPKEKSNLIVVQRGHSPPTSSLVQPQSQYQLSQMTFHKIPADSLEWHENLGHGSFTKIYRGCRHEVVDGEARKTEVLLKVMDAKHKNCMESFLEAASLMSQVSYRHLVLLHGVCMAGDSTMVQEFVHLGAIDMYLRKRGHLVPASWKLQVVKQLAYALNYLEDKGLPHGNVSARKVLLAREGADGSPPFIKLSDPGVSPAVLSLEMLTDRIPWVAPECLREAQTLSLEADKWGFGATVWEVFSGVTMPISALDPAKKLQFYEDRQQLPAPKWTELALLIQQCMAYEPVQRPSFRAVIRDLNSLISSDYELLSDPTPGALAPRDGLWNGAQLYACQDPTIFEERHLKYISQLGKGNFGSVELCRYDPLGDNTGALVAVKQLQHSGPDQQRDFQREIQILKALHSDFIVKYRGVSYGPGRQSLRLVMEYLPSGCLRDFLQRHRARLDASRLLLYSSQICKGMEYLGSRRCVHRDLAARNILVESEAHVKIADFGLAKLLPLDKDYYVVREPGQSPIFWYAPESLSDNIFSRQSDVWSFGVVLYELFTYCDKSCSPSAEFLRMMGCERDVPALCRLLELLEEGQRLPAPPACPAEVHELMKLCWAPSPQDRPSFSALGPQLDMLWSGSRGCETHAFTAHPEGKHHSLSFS

[8] = target: Mast/stem cell growth factor receptor Kit (Homo sapiens) (UniProt P10721); assay: cKit(h) Eurofins kinase panel; conditions: Compound concentration 1.0 uM
[9] = target: Focal adhesion kinase 1 (Homo sapiens) (UniProt Q05397); assay: FAK(h) Eurofins kinase panel; conditions: Compound concentration 1.0 uM
ATR/ATRIP (Homo sapiens) = ATR/ATRIP (Homo sapiens) (UniProt Q13535+Q8WXE1); assay: ATR/ATRIP(h) Eurofins kinase panel; format: protein-complex assay; conditions: Compound concentration 1.0 uM

Homeodomain-interacting protein kinase 2 (Homo sapiens), sequence (Q9H2X6 whole entry, looked up): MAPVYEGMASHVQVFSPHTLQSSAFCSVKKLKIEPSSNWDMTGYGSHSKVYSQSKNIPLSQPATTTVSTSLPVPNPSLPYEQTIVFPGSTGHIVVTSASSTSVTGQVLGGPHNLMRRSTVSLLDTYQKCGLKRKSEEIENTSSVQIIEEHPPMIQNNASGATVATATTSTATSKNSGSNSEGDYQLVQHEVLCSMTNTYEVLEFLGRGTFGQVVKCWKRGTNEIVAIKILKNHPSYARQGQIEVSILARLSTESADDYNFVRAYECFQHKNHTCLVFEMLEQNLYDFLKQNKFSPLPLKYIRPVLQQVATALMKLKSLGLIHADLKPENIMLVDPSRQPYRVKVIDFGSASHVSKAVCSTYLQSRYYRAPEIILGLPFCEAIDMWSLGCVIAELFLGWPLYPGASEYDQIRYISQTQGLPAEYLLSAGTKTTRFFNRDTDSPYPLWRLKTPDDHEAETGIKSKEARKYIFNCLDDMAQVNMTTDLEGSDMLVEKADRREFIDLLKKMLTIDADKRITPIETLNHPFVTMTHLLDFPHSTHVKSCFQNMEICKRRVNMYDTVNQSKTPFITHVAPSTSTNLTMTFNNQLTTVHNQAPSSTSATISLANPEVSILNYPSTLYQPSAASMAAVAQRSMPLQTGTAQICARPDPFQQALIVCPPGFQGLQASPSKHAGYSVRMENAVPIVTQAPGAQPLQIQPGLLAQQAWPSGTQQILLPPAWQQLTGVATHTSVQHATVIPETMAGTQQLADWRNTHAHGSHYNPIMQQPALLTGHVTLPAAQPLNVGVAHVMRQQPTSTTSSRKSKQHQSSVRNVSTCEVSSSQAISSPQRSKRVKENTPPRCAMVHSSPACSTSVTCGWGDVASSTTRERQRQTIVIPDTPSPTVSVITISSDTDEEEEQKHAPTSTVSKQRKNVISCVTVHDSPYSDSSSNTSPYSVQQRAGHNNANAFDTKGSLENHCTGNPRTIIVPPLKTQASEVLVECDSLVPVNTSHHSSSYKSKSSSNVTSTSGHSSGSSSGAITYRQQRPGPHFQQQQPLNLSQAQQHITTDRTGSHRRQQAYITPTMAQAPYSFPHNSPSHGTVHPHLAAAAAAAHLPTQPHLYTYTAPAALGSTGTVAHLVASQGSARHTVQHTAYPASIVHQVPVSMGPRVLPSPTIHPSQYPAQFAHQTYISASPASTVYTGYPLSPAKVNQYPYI
Ribosomal protein S6 kinase alpha-4 (Homo sapiens), sequence (O75676 whole entry, looked up): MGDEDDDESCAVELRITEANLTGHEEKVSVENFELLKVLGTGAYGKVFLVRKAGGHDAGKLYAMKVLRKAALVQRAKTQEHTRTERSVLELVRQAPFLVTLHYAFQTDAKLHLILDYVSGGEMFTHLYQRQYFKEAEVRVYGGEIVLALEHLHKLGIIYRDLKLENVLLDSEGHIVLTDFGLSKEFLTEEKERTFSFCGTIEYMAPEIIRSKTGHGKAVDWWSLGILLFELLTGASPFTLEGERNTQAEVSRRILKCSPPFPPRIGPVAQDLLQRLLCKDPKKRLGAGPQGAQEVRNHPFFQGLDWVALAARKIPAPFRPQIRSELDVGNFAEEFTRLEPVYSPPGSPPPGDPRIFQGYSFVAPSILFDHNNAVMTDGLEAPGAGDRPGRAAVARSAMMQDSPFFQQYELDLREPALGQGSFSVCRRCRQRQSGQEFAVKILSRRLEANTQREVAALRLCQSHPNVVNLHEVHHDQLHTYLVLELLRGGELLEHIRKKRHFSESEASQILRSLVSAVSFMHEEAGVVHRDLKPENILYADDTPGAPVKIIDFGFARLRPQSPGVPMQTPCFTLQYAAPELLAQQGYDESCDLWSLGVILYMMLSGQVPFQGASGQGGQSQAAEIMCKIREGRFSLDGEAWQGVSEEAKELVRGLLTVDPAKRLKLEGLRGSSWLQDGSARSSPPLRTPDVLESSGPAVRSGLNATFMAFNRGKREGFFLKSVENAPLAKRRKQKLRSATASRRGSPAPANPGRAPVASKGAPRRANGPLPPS
Mast/stem cell growth factor receptor Kit (Homo sapiens), sequence (P10721 whole entry): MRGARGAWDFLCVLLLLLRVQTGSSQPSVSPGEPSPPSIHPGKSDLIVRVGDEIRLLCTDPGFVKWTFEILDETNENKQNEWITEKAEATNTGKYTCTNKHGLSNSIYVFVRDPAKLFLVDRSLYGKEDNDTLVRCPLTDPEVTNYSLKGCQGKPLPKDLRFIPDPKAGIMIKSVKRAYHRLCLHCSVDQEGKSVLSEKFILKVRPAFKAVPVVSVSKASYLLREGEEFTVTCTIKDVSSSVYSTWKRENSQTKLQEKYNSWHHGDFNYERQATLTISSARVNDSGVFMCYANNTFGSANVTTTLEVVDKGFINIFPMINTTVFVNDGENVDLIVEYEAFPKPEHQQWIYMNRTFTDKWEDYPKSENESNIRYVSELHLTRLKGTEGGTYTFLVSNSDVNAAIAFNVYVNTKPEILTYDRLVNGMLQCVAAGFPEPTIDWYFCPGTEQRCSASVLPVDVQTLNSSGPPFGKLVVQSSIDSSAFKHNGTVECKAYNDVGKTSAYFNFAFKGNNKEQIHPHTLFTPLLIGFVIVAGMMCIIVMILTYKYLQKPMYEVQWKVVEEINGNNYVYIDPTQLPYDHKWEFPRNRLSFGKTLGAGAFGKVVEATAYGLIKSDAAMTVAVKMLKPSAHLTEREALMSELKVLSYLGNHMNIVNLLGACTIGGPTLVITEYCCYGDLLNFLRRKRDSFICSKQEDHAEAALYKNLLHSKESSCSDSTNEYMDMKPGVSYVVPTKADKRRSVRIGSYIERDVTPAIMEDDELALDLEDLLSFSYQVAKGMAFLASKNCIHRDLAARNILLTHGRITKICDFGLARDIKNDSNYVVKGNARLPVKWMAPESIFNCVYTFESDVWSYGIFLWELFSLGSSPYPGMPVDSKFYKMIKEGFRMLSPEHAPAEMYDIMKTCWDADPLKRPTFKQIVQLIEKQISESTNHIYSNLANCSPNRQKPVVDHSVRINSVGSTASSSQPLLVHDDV
Protein kinase C theta type (Homo sapiens), sequence (Q04759 whole entry, looked up): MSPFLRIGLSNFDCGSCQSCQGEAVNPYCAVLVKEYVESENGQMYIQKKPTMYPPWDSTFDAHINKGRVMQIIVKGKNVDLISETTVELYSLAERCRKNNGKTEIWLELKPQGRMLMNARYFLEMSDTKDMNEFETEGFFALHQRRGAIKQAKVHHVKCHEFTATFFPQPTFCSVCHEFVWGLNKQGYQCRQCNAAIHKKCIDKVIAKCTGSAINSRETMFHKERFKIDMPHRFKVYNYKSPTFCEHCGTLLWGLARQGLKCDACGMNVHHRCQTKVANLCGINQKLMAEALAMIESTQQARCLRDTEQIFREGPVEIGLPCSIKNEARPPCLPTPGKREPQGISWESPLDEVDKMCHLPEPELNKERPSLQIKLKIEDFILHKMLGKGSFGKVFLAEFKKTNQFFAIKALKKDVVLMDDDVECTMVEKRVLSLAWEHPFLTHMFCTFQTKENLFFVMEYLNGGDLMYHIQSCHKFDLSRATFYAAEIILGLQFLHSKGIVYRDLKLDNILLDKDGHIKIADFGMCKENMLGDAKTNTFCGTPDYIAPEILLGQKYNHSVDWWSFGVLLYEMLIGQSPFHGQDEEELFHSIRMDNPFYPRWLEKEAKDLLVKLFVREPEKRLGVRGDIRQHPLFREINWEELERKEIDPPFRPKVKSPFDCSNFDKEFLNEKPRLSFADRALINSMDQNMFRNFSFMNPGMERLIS
Focal adhesion kinase 1 (Homo sapiens), sequence (Q05397 2-1052 limits assumed): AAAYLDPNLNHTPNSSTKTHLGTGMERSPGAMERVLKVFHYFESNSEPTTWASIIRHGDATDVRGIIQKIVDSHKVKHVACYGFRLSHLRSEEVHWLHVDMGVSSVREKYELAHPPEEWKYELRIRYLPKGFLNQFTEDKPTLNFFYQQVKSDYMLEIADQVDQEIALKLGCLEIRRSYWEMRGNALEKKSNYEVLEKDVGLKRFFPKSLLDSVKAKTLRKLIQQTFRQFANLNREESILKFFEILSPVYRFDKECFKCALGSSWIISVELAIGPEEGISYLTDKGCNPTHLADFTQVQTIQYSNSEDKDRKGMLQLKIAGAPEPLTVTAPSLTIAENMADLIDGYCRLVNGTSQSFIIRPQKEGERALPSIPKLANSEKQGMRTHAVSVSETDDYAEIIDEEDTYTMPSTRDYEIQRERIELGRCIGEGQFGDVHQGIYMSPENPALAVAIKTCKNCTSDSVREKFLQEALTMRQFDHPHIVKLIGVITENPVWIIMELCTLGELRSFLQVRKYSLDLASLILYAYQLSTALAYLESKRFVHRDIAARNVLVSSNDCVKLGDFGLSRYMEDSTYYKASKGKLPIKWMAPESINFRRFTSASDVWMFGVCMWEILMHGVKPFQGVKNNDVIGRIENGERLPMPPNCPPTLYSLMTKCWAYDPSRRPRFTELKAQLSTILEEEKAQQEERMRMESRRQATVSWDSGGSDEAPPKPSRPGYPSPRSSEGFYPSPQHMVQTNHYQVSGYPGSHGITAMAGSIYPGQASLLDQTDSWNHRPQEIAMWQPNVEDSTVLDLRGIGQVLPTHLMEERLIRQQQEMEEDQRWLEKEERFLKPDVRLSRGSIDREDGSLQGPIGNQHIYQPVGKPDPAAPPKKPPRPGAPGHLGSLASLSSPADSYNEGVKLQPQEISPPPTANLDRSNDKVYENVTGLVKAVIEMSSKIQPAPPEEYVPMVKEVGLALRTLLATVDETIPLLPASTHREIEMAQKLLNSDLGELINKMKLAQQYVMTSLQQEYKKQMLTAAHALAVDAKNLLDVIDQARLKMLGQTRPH

CC1=C(C#N)C(c2ccc3c(c2)c(NC(=O)c2ccccc2C)nn3C)C(C#N)=C(C)N1 [BAY-974]
inactive: residual activity [1] 55%

CCc1ccccc1C(=O)Nc1n[nH]c2c(C)c(F)c(C3C(C#N)=C(C)N(C)C(C)=C3C#N)cc12 [BAY-3827]
inactive: % residual kinase activity [2] 77% | % residual kinase activity [3] 100% | % residual kinase activity [4] 101% | % residual kinase activity [5] 84% | % residual kinase activity [6] 27% | % residual kinase activity [7] 93% | % residual kinase activity [8] 101% | % residual kinase activity [9] 84% | % residual kinase activity (ATR/ATRIP (Homo sapiens)) 94%
